The text below walks through data of paper PMC7215935, “GM1 Oligosaccharide Crosses the Human Blood–Brain Barrier In Vitro by a Paracellular Route” (International Journal of Molecular Sciences, 2020).

For series [1] the following is noted: cited from earlier work.
Series [2] relates to hBLECs. The experiment in a line: Toxicity on hBLECs / monolayer integrity by LY permeability in combination with test substance. In kind it is cell-based, human. How it is done: (§1) Prior to the experiments, in order to verify the hBLECs’ monolayer integrity and stability, the permeability parameters were verified as previously reported. Briefly, 1.5 mL Ringer–Hepes solution (RH) (150 mM NaCl, 5.2 mM KCl, 2.2 mM CaCl2, 0.2 mM MgCl26H2O, 6 mM NaHCO3, 5 mM HEPES, pH: 7.4) was added to empty wells of a 12-well plate. Filter insert containing confluent monolayers of hBLECs or not (control) were subsequently placed in the 12-well plate, filled with 0.5 mL RH buffer containing the fluorescent integrity marker LY (50 μM), and then placed on an orbital shaker (150 rpm, Heidolph Titramax 100) at 37 °C in a humidify atmosphere of 95% air/5% CO2. Every 20 min for 1 h, filter inserts were withdrawn from the receiver compartment and placed in the next one. To verify the quantity of LY, at the end of the experiments, aliquots from the donor solution were taken at the end of the experiments and the fluorescence was quantified using a quantification curve of LY as referee. At least three inserts with cells and three without cells were tested in each permeability measurement. The fluorescence was measured using a luminescence spectrometer (LS 50B, Perkin Elmer), using the following excitation/emission wavelength (nm) settings: 432/538. Pe parameters were calculated according to the formulas shown in the Supplementary Information (Equations (7)–(10)). In parallel, as positive control for breakdown of hBLECs, D-mannitol, was used at a concentration of 1.4 M. At this concentration, mannitol induces an osmotic shock, and thus an increase in paracellular permeability.
To evaluate the toxicity of GM1 and OligoGM1, the LY endothelial permeability (Pe) and apparent permeability (Papp) were considered for evaluation of hBLEC monolayer integrity after administration of compounds.
To examine the LY permeability, 1.5 mL of RH buffer was added to empty wells of a 12-well plate, then hBLEC filters were placed in the 12-well plate and filled with 0.5 mL RH buffer containing 50 μΜ LY plus OligoGM1 or GM1 at an appropriate test concentration (from 5 to 300 μΜ). The hBLEC inserts were moved every 20 min to a new RH-filled well up to 60 min. At the end of the incubation period, solutions were collected from apical and basolateral compartments, LY was quantified, and Papp was calculated as reported in the Supplementary Information (Equation (1)) and previously mentioned.

Series [3] deals with human brain-like endothelial cells (hBLECs). Kind of series: Direct transport (apical to basolateral, A → B) across the hBLEC monolayer: Pe and Papp. Particulars: for endothelial permeability Pe (A → B): after 60 min, hBLEC monolayer. The format is in vitro ADME. How it is done: as §1
Transport experiments were carried out by adding tritium-labeled GM1 or OligoGM1 (1 × 10^6 dpm) to cold GM1 or OligoGM1, respectively, at different concentrations, as specified below.
To identify and quantify the GM1 or OligoGM1 molecules in every transport experiment, aliquots from apical A (5 μL) and basolateral B (200 μL) compartments were collected at indicated time points and combined with 5 mL of ULTIMA GOLD liquid (PerkinElmer), shaken, and counted for 20 min by liquid scintillation analyzer (TRI-CARB 2100TR, Packard). Resulting radioactivity measures were used to estimate the quantity of the molecules. Experiments were performed on an agitation plate at 37 °C (150 rpm, Heidolph Titramax 100) in a humidify atmosphere of 95% air/5% CO2. At least three inserts with cells were tested in each transport experiment for each condition.
To examine flux from apical to basolateral compartments (A → B), 1.5 mL RH buffer was added to empty wells of a 12-well plate. Following this, the hBLEC filter was placed in the same 12-well plate and filled with 0.5 mL RH buffer containing 1 × 10^6 dpm of tritiated [^3H]GM1 or [^3H]OligoGM1 plus 50 μM of cold GM1 or OligoGM1 (Figure S3b).
To establish the time dependence of the transport experiments, hBLEC inserts filled with OligoGM1 were transferred into a new receiver well plate filled with fresh RH buffer every 20 min up to 240 min. The hBLECs’ properties, integrity, and stability were maintained up to 240 min in the transport experiments with RH buffer in the upper and basolateral side (see [28] and Figure S4).
To establish the dose dependence in the transport experiments, 1 × 10^6 dpm of tritiated [^3H]OligoGM1 plus 5, 10, 50, 100, and 300 μM OligoGM1 solutions were prepared and employed as described above. The hBLECs inserts were transferred into a new RH-filled receiver well plate every 20 min up to 60 min. […]
To evaluate the possible active transport involvement, the transport of OligoGM1 from apical to basolateral (A → B) compartments was performed at 4 °C, with the aim of inhibiting the active transport mechanism at low temperature. […]

Another series has as its system MRPs. The experiment in a line: ABC transporter competition assay (Caco-2 pump out), CMFDA efflux. The conditions noted are these: Caco-2 cells, positive control. A general note: Caco-2 monolayers are a common model of the intestinal barrier.
The test system of series [4] is human brain-like endothelial cells (hBLECs). Kind of series: Inverse transport (basolateral to apical, B → A) across hBLECs and efflux ratio. In kind it is in vitro ADME. How it is done:
For the inverse transport study (related to basolateral → apical flux, B → A), 1.5 mL of 1 × 10^6 dpm of tritiated [^3H]OligoGM1 plus 50 μM OligoGM1 in RH buffer were added to an empty well of a 12-well plate (Figure S3c). Every 20 min up to 60 min, the hBLEC filter filled with 0.5 mL RH buffer was removed and replaced with a new filter with fresh RH buffer.
The apparent permeability, efflux ratio, and endothelial permeability were calculated to estimate the absorption processes of drugs, to predict implication of active transport in the process of drugs absorption, and to more accurately appreciate the transport of a drug across an endothelial barrier, respectively. Detailed information on the equations used to calculate the permeability parameters are reported in the Supplementary Information. […]
where (∆Q/∆t) (μmol/sec) is the rate of permeation (quantity per second) of a molecule across the cell layer, C0 (μmol/cm3) is the donor compartment concentration at time zero and S (cm2) is the area of […]
In the transwell insert system there are two compartments and, analyzing the absorption of a substance, the apparent permeability index can be obtained for the apical to basolateral transport, Papp A → B, and for the inverse, basolateral to apical transport Papp B → A.
To define Papp (1), the Fick's law could be used, which describes the transport of substances through a semipermeable membrane. Given that the initial concentration of the solute in the donor compartment is much higher than the one in the receiver compartment (equal to 0 at t0), and assuming that the solute equally partitions in the two compartments, for small variation of C0, it is possible to integrate and simplify the Fick’s equation to obtain as follows: […]
where ∆Q/∆t corresponds to the amount of solute that crosses the membrane over time, D is the diffusion coefficient of the substance in water, S is the membrane surface, h its thickness and C0 is the concentration of the solute which approximates the initial concentration C0.
The equation (2) can be rewritten as: […]

Series [5] deals with hBLECs. Kind of series: Fate of OligoGM1 in hBLECs (cell-associated radioactivity). In kind it is in vitro ADME, human. How it is done:
The possible internalization of OligoGM1 in hBLECs was determined by measuring the radioactivity associated to the cells. Briefly, at the end of direct transport, apical and basolateral solutions were collected, hBLEC filters were washed with RH buffer, and cells were detached by trypsin and lysed with 1mM Na3VO4, 1 mM PMSF, 2% (v/v) aprotinin, and 1% (v/v) IP in cold PBS. At this point, the lysed cell solution was counted to measure the radioactivity. All the cell lysates were combined with 5 mL of ULTIMA GOLD liquid (PerkinElmer), shaken, and counted for 20 min by liquid scintillation analyzer (TRI-CARB 2100TR, Packard). The resulting dpm radioactivity measures were used to estimate the molecule quantity.

Series [6] relates to hBLECs. The experiment in a line: Metabolic integrity of OligoGM1 after hBLEC transport (HPTLC autoradiography). In kind it is in vitro ADME, human. Particulars: basolateral compartment, detection limit 15 dpm. The text has this: Since OligoGM1 is tritium labeled at position 6 of the external galactose, any possible galactosidase activity present on the plasma membrane of hBLECs can result in external galactose removal, leading to loss of radioactivity from the penta-saccharide. Radiolabeled galactose may pass the BBB or may enter into the cells and be recycled for the biosynthesis of new glycans, so that the radioactivity found may correspond to the galactose or to any possible new glycan rather than to the original oligosaccharide.
Thus, to test the integrity of the OligoGM1 molecule after hBLEC crossing, OligoGM1 solution was prepared in RH buffer at a final concentration of 100 μM plus 1 × 10^6 dpm of tritium-labeled OligoGM1. For the apical–basolateral transport experiment, the hBLEC insert’s apical side was filled with 0.5 mL of the drug solution and placed on 1.5 mL RH buffer-filled well of a 12-well plate. After 60 min, the solution of the receiving compartment (about 1.5 mL) was collected and 200 μL were combined with 5 mL of ULTIMA GOLD liquid (PerkinElmer), shaken, and counted for 20 min by a liquid scintillation analyzer (TRI-CARB 2100TR, Packard).
To verify that the counted radioactivity indeed corresponded to [^3H]OligoGM1, 0.5 mL of receiving compartment solution was lyophilized and suspended in 0.5 mL of methanol. […]

Setting [7] is: 1.4 M, osmotic shock, positive control for leakage.

Protocol for MRPs: Briefly, Caco-2 cells in 96-well plates were washed once with RH buffer and incubated for 120 min with 10 µM R123 or for 15 min with 0.5 µM CMFDA. R123 and CMFD are substrates for the major efflux pumps expressed by BBB and intestine cells, i.e., P-gp/BCRP and MRPs, respectively. After the incubation period, Caco-2 cells were washed twice with RH buffer with or without test compounds (OligoGM1 at 10, 50, and 100 µM). The rate out (Kout) of Caco-2 cells for fluorescent dyes was monitored by fluorescence measurement (λex = 501 nm and λem = 538 nm for R123; λex = 485 nm and λem = 538 nm for CMFDA) using a microplate fluorescent reader (BioTek, H1, Vermont, Winooski). The amount of dye expelled from the cells was measured at 37 °C and every 5 min for one hour for R123 and every 2 min for 30 min for CMFDA. The rate out of the dye from cells was calculated as the slope of the curve of the cumulative amount of dye against the time (Kout = ∆pmol⁄∆t) and compared with the value in the presence of test compounds.

Consider 6′-R-maltosyl-maltotrioside, for which the “hydrodynamic radius (r)” value in series [1] is 8.7 Å.

As to `OC[C@@H](O)[C@@H](O)[C@H](O)[C@H](O)CO` [D-mannitol], in the series on hBLECs [2] (setting [7]), the “rise of LY Papp on co-incubation” value amounted to 4 fold and the “rise of LY Pe on co-incubation” value was determined as 20 fold.

In the case of `CCCCCCCCCCCCCC=CC(O)C(COC1OC(CO)C(OC2OC(CO)C(OC3OC(CO)C(O)C(OC4OC(CO)C(O)C(O)C4O)C3NC(C)=O)C(OC3(C(=O)O)CC(O)C(NC(C)=O)C(C(O)C(O)CO)O3)C2O)C(O)C1O)NC(=O)CCCCCCCCCCCCCCCCC` (stereo not drawn) [GM1, β-Gal-(1-3)-β-GalNAc-(1-4)-[α-Neu5Ac-(2-3)]-β-Gal-(1-4)-β-Glc-(1-1)-Cer, reference compound], the “endothelial permeability Pe (A → B)” value in series [3] (50 μM) is recorded as 0.028 ± 0.007 ×10^−3 cm/min. For the same compound, in the series with hBLECs [2] (10, 50, 100 and 300 μM with 50 μM LY, 60 min and over time (20, 40, 60 min)), the “effect on LY Pe and Papp (toxicity to hBLECs)” value is “no variations of LY Pe and Papp were observed”.

`CN(C)C(=O)CCSC(SCCC(=O)O)c1cccc(/C=C/c2ccc3ccc(Cl)cc3n2)c1` (centres unmarked) [MK571, reference compound]: in the series on MRPs, the “decrease of outgoing rate (Kout) of CMFDA” value is “more than 30%”.

As to `OC[C@H]1O[C@H](OC[C@H]2O[C@H](OC[C@H]3O[C@H](O[C@]4(CO)O[C@H](CO)[C@@H](O)[C@@H]4O)[C@H](O)[C@@H](O)[C@@H]3O)[C@H](O)[C@@H](O)[C@H]2O)[C@H](O)[C@@H](O)[C@H]1O` [stachyose], the “hydrodynamic radius (r)” value in series [1] is reported as 6.5 Å.

Consider Lucifer yellow [LY, reference compound], for which the “apparent permeability Papp (A → B) of LY alone” value in series [3] (50 μM LY, hBLEC integrity check (Figure 2)) is on record as 1.25 ± 0.123 ×10^−5 cm/s. In addition, the “Papp A>B at 4 °C” value in series [3] (50 μM, 60 min, 4 °C (Figure 6d)) is recorded as 1.04 ± 0.068 x 10^-5 cm/sec. Moreover, the “Papp A>B at 37 °C” value in series [3] (50 μM, 60 min, 37 °C, temperature experiment (Figure 6d)) is 1.27 ± 0.072 x 10^-5 cm/sec. Also, the “endothelial permeability Pe (A → B)” value in series [3] (50 μM) was 0.65 ± 0.041 ×10^−3 cm/min. Besides, the “Papp B>A” value in series [4] (50 μM in basolateral compartment, 60 min (Figure 7)) was 1.59 ± 0.27 x 10^-5 cm/sec. In series [4] (50 μM, 60 min, hBLECs), the “Efflux Ratio (E) = Papp B>A / Papp A>B” value is reported as 1.25. Also, the “hydrodynamic radius (r)” value in series [1] was 4.9 Å.

On to “[6-^3H]β-Gal-(1-3)-β-GalNAc-(1-4)-[α-Neu5Ac-(2-3)]-β-Gal-(1-4)-β-Glc-Cer [[^3H]OligoGM1]”, for which the “amount found within the cells (internalization)” value with hBLECs [5] (50 μM apical, 20, 40, 60, 240 min, cell lysate) is on record as “no detectable amount”. Also, the “radioactivity associated with apical and basolateral solutions” value in the series on hBLECs [5] (50 μM apical, each time point 20, 40, 60, 240 min) was “about 99%”. Further, in the series on hBLECs [6], the “metabolic stability after hBLEC crossing” value is on record as “metabolically stable”.
